# Legend:
# P-4E-BP1 (T37/46) = experiment: Cell based AlphaLISA assay, inhibition of P-4E-BP1 (T37/46) (mTORC1 substrate phosphorylation) in MDA-MB-468 cells; details: Homo sapiens, MDA-MB-468, 4 h, AlphaLISA, two to four hours at 37° C., read-out: pIC50 for Inhibition of mTORC1 and mTORC2 Substrate Phosphorylation, P-4E-BP1-(T37/46) (converted)
# Procedure, shortened: (§1)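 Readout is the Alpha signal for each phosphoprotein, measured in duplicate from cell lysates with a SureFire Ultra homogeneous assay. IC50 values derive from inhibitor concentration-response curves fitted by normalized regression against controls.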
# P-P70S6K (T389) = experiment: Cell based AlphaLISA assay, inhibition of P-P70S6K (T389) (mTORC1 substrate phosphorylation) in MDA-MB-468 cells; details: Homo sapiens, 4 h, AlphaLISA, two to four hours at 37° C., read-out: pIC50 for Inhibition of mTORC1 and mTORC2 Substrate Phosphorylation, P-P70S6K-(T389) (converted)
# Procedure, shortened: as §1
# P-Akt (S473) = experiment: Cell based AlphaLISA assay, inhibition of P-Akt (S473) (mTORC2 substrate phosphorylation) in MDA-MB-468 cells; details: Homo sapiens, MDA-MB-468, 4 h, AlphaLISA, two to four hours at 37° C., read-out: pIC50 for Inhibition of mTORC1 and mTORC2 Substrate Phosphorylation, p-AKT 1/2/3 -(S473) (converted)
# Procedure, shortened: as §1
Structure (SMILES),IC50 (P-4E-BP1 (T37/46)),IC50 (P-P70S6K (T389)),IC50 (P-Akt (S473))
CO[C@H]1C[C@@H]2CC[C@@H](C)[C@@](O)(O2)C(=O)C(=O)N2CCCC[C@H]2C(=O)O[C@H]([C@H](C)C[C@@H]2CC[C@@H](O)[C@H](OC)C2)C[C@@H](O)[C@H](C)/C=C(\C)[C@@H](O)[C@@H](OC)C(=NOCc2cn(-c3cnc(N4CCN(c5ncc(C(=O)NCCOCCOCCOCCC(=O)NCCCCn6nc(-c7ccc8oc(N)nc8c7)c7c(N)ncnc76)cn5)CC4)nc3)nn2)[C@H](C)C[C@H](C)/C=C/C=C/C=C/1C [Example 193],3.16 to 31.6 nM,< 1 nM,> 1000 nM
CO[C@H]1C[C@@H]2CC[C@@H](C)[C@@](O)(O2)C(=O)C(=O)N2CCCC[C@H]2C(=O)O[C@H]([C@H](C)C[C@@H]2CC[C@@H](OCCCCc3cn(CCOCCOCCOCCOCCOCCOCCC(=O)NCc4ccc(Cn5nc(-c6ccc7oc(N)nc7c6)c6c(N)ncnc65)cc4)nn3)[C@H](OC)C2)CC(=O)[C@H](C)/C=C(\C)[C@@H](O)[C@@H](OC)C(=O)[C@H](C)C[C@H](C)/C=C/C=C/C=C/1C [Example 86],< 3.16 nM,< 1 nM,3.16 to 31.6 nM
COc1ccc(-c2ccc3ncc4c(c3c2)n(-c2ccc(N3CCN(c5ncc(CNC(=O)CCOCCOCCOCCOCCOCCOCCn6cc(CCCCO[C@@H]7CC[C@@H](C[C@@H](C)[C@@H]8CC(=O)[C@H](C)/C=C(\C)[C@@H](O)[C@@H](OC)C(=O)[C@H](C)C[C@H](C)/C=C/C=C/C=C(\C)[C@@H](OC)C[C@@H]9CC[C@@H](C)[C@@](O)(O9)C(=O)C(=O)N9CCCC[C@H]9C(=O)O8)C[C@H]7OC)nn6)cn5)CC3)c(C(F)(F)F)c2)c(=O)n4C)cn1 [Example 66],< 3.16 nM,< 1 nM,< 3.16 nM
CO[C@H]1C[C@@H]2CC[C@@H](C)[C@@](O)(O2)C(=O)C(=O)N2CCCC[C@H]2C(=O)O[C@H]([C@H](C)C[C@@H]2CC[C@@H](OCCCCc3cn(CCOCCOCCOCCOCCOCCOCCC(=O)NCCCCn4nc(-c5cnc6[nH]ccc6c5)c5c(N)ncnc54)nn3)[C@H](OC)C2)C[C@@H](OC)[C@H](C)/C=C(\C)[C@@H](O)[C@@H](OC)C(=O)[C@H](C)C[C@H](C)/C=C/C=C/C=C/1C [Example 70],> 1000 nM,1 to 10 nM,> 1000 nM
CO[C@H]1C[C@@H]2CC[C@@H](C)[C@@](O)(O2)C(=O)C(=O)N2CCCC[C@H]2C(=O)O[C@H]([C@H](C)C[C@@H]2CC[C@@H](O)[C@H](OC)C2)C[C@@H](O)[C@H](C)/C=C(\C)[C@@H](O)[C@@H](OC)C(=NOCc2cn(CCOCCOCCOCCOCCOCCOCCOCCOCCC(=O)NCCCCn3nc(-c4cc5cc(O)ccc5[nH]4)c4c(N)ncnc43)nn2)[C@H](C)C[C@H](C)/C=C/C=C/C=C/1C [Example 94],3.16 to 31.6 nM,1 to 10 nM,> 1000 nM
CO[C@H]1C[C@@H]2CC[C@@H](C)[C@@](O)(O2)C(=O)C(=O)N2CCCC[C@H]2C(=O)O[C@H]([C@H](C)C[C@@H]2CC[C@@H](OCCCCc3cn(CCOCCOCCOCCOCCOCCOCCC(=O)N4CCC(Cn5nc(-c6ccc7oc(N)nc7c6)c6c(N)ncnc65)CC4)nn3)[C@H](OC)C2)CC(=O)[C@H](C)/C=C(\C)[C@@H](O)[C@@H](OC)C(=O)[C@H](C)C[C@H](C)/C=C/C=C/C=C/1C [Example 91],< 3.16 nM,< 1 nM,< 3.16 nM
CO[C@H]1C[C@@H]2CC[C@@H](C)[C@@](O)(O2)C(=O)C(=O)N2CCCC[C@H]2C(=O)O[C@H]([C@H](C)C[C@@H]2CC[C@H](n3cc(COC(=O)NCCOCCOCCOCCC(=O)NCCOCCOCCC(=O)NCCCCn4nc(-c5ccc6oc(N)nc6c5)c5c(N)ncnc54)nn3)[C@H](OC)C2)C/C(=N/OCc2ccccc2)[C@H](C)/C=C(\C)[C@@H](O)[C@@H](OC)C(=O)[C@H](C)C[C@H](C)/C=C/C=C/C=C/1C [Example 154],> 1000 nM,> 1000 nM,> 1000 nM
CO[C@H]1C[C@@H]2CC[C@@H](C)[C@@](O)(O2)C(=O)C(=O)N2CCCC[C@H]2C(=O)O[C@H]([C@H](C)C[C@@H]2CC[C@H](n3cc(-c4cccc(C(=O)NCCOCCOCCOCCOCCC(=O)NCCOCCOCCOCCOCCC(=O)NCCCCn5nc(-c6cc7cc(O)ccc7[nH]6)c6c(N)ncnc65)c4)nn3)[C@H](OC)C2)CC(=O)[C@H](C)/C=C(\C)[C@@H](O)[C@@H](OC)C(=O)[C@H](C)C[C@H](C)/C=C/C=C/C=C/1C [Example 142],3.16 to 31.6 nM,1 to 10 nM,31.6 to 1000 nM
CO[C@H]1C[C@@H]2CC[C@@H](C)[C@@](O)(O2)C(=O)C(=O)N2CCCC[C@H]2C(=O)O[C@H]([C@H](C)C[C@@H]2CC[C@H](n3cc(-c4cccc(C(=O)NCCOCCOCCOCCC(=O)NCCOCCOCCOCCOCCC(=O)NCCCCn5nc(-c6cc7cc(O)ccc7[nH]6)c6c(N)ncnc65)c4)nn3)[C@H](OC)C2)CC(=O)[C@H](C)/C=C(\C)[C@@H](O)[C@@H](OC)C(=O)[C@H](C)C[C@H](C)/C=C/C=C/C=C/1C [Example 140],3.16 to 31.6 nM,1 to 10 nM,31.6 to 1000 nM
CO[C@H]1C[C@@H]2CC[C@@H](C)[C@@](O)(O2)C(=O)C(=O)N2CCCC[C@H]2C(=O)O[C@H]([C@H](C)C[C@@H]2CC[C@H](n3cc(COC(=O)NCCOCCOCCOCCC(=O)NCCOCCOCCC(=O)NCCCCn4nc(-c5cc6cc(O)ccc6[nH]5)c5c(N)ncnc54)nn3)[C@H](OC)C2)C[C@@H](OC)[C@H](C)/C=C(\C)[C@@H](O)[C@@H](OC)C(=O)[C@H](C)C[C@H](C)/C=C/C=C/C=C/1C [Example 144],> 1000 nM,10 to 1000 nM,> 1000 nM
CO[C@H]1C[C@@H]2CC[C@@H](C)[C@@](O)(O2)C(=O)C(=O)N2CCCC[C@H]2C(=O)O[C@H]([C@H](C)C[C@@H]2CC[C@H](n3cc(COC(=O)NCCOCCOCCOCCC(=O)NCCOCCOCCOCCC(=O)NCCCCn4nc(-c5cc6cc(O)ccc6[nH]5)c5c(N)ncnc54)nn3)[C@H](OC)C2)C/C(=N/OC(C)(C)C)[C@H](C)/C=C(\C)[C@@H](O)[C@@H](OC)C(=O)[C@H](C)C[C@H](C)/C=C/C=C/C=C/1C [Example 161],> 1000 nM,> 1000 nM,> 1000 nM
CO[C@H]1C[C@@H]2CC[C@@H](C)[C@@](O)(O2)C(=O)C(=O)N2CCCC[C@H]2C(=O)O[C@H]([C@H](C)C[C@@H]2CC[C@@H](OC(=O)NCc3cn(CCOCCOCCOCCOCCOCCOCCC(=O)NCCCCn4nc(-c5ccc6oc(N)nc6c5)c5c(N)ncnc54)nn3)[C@H](OC)C2)CC(=O)[C@H](C)/C=C(\C)[C@@H](O)[C@@H](OC)C(=O)[C@H](C)C[C@H](C)/C=C/C=C/C=C/1C [Example 60],< 3.16 nM,< 1 nM,3.16 to 31.6 nM
CO[C@H]1C[C@@H]2CC[C@@H](C)[C@@](O)(O2)C(=O)C(=O)N2CCCC[C@H]2C(=O)O[C@H]([C@H](C)C[C@@H]2CC[C@H](n3cc(-c4cccc(C(=O)NCCOCCOCCOCCC(=O)NCCOCCOCCC(=O)NCCCCn5nc(-c6ccc7oc(N)nc7c6)c6c(N)ncnc65)c4)nn3)[C@H](OC)C2)CC(=O)[C@H](C)/C=C(\C)[C@@H](O)[C@@H](OC)C(=O)[C@H](C)C[C@H](C)/C=C/C=C/C=C/1C [Example 136],3.16 to 31.6 nM,1 to 10 nM,31.6 to 1000 nM
